Source: patent US5215900A, “Microbial transformation of a substituted pyridinone using streptomyces sp. MA6804” (Merck & Co., Inc., priority 1991, dated 1993)
pIC50: −log10 of the molar value.

Molecular target: T1, recombinant HIV reverse transcriptase (HIV RTR) (Human immunodeficiency virus type 1 group M subtype B, UniProt P04585)
T1 construct: recombinant HIV reverse transcriptase (HIV RTR)
Assay: Reverse Transcriptase Assay
Type: biochemical
Procedure: The assay measures the incorporation of tritiated deoxyguanosine monophosphate by recombinant HIV reverse transcriptase (HIV RTR) (or other RT) into acid-precipitable cDNA at the Km values of dGTP and poly r(C).oligo d(G)12-18.
Thirty uL of a reaction mixture containing equal volumes of: 500 mM Tris.HCl (pH 8.2), 300 mM MgCl2, 1200 mM KCl, 10 mM DTT, 400 μg/mL poly r(c).oligo d(G) [prepared by dissolving 1.5 mg (25 U) poly r(C).oligo d(G) in 1.5 ml sterile distilled H2 O and diluting to 400 μg/ml], 0.1 μuCi/μl [^3 H] dGTP, 160 μM dGTP, was added to 10 μl sterile distilled H2 O, 2.5 μl of potential inhibitor. Ten μL of 3.2 nM purified HIV RTR in tubes. The mixture was incubated at 37° C. for 45 minutes.
After incubation was complete, the tubes were cooled in ice for 5 minutes. Ice-cold 13% TCA containing 10 mM NaPPi (200 μl) was added and the mixture incubated on ice for 30 minutes. The precipitated cDNA was removed by filtration using presoaked glass filters [TCA, NaPPi ]. The precipitate was then washed with 1N HCl, 10 mM NaPPi. The filter discs were then counted in a scintillation counter.
Under these conditions [dGTP] and poly r(C).oligo d(G)12-18 each are approximately equal to the appropriate Km value. Approximately 5-6,000 cpm of [^3 H] GMP are incorporated into acid-precipitable material. The RT reaction is concentration-and time-dependent.

Cc1[nH]c(=O)c(NCc2nc3c(C)ccc(C)c3o2)cc1C(C)O (stereo not shown) [compound (I), 3-[(4,7-Dimethylbenzoxazol-2-yl)-methylamino]-5-(1-hydroxyethyl)-6-methyl-2(1H)-pyridinone]
pIC50: ~6.37
